Among the test systems are OVCAR-3; UACC-257; HCT-15; OVCAR-4; LOX IMVI; CAKI-1; IGROV-1; OVCAR-8; NCI-H23; HOP-62; K562; Malme-3M; NCI-H460; UACC-62; PC-3; UO-31; CCRF-CEM; HT-29; SK-MEL-5; SF-268.
Common to all, as to assay: NCI tumour cell line growth inhibition, 48 h

Results on eleven compounds are retold here after ChEMBL document CHEMBL1201862, “PubChem BioAssay data set” (2004).

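Compound exposure: 48 hours, 5 concentrations, 96-well plates. GI50 is the concentration that inhibits growth by half.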 The source made the active and inactive calls. No stated cut-off is given here; in the data, active = GI50 up to about 1.1 µM and inactive = higher.

Take `CCc1ccccc1/N=N/C(=O)NNc1ccccc1CC`: the GI50 is 18.7 µM (inactive) in the test on OVCAR-3; 18.9 µM (inactive) in the test on UACC-257; 18.5 µM with HCT-15; 24 µM (inactive) with OVCAR-4; 18.5 µM (inactive) in the test on LOX IMVI; 27.9 µM (inactive) in the test with CAKI-1. Besides, the GI50 is 11 µM (inactive) in the test on IGROV-1; 15.2 µM (inactive) in the test with OVCAR-8; 19.9 µM (inactive) in the test with NCI-H23; 15.8 µM (inactive) in the test with HOP-62; 26.1 µM (inactive) in the test with K562; 17.6 µM (inactive) with Malme-3M. Moreover, the GI50 in the test with NCI-H460 was 18 µM (inactive); with UACC-62, 10.3 µM (inactive); in the test with PC-3, 16.4 µM (inactive); in the test with UO-31, 17.3 µM (inactive); in the test with CCRF-CEM it was 25.3 µM (inactive); in the test with HT-29, 24 µM (inactive). Further, the GI50 with SK-MEL-5 was 15 µM (inactive); in the test with SF-268, 17.3 µM (inactive).

Take `COc1cc2nc(-c3cccs3)nc(N3CCN(c4ccccc4)CC3)c2cc1OC`: the GI50 with OVCAR-3 is > 100 µM (inactive); in the test with UACC-257 it was > 100 µM (inactive); in the test with HCT-15, over 100 µM; with OVCAR-4, > 100 µM (inactive); in the test with LOX IMVI, > 100 µM (inactive); in the test on CAKI-1, > 100 µM (inactive). Moreover, the GI50 with IGROV-1, with OVCAR-8, in the test on NCI-H23, with HOP-62, with K562 and in the test with Malme-3M was > 100 µM (inactive) each time. Also, the GI50 with NCI-H460, with UACC-62, with PC-3, with UO-31, in the test on HT-29 and with SK-MEL-5 was > 100 µM (inactive) in each case. The GI50 in the test with SF-268 was > 100 µM (inactive).

In the case of `NN`, the GI50 in the test with OVCAR-3 was 431 µM (inactive); in the test with UACC-257 it was 851 µM (inactive); in the test with HCT-15, 296 µM; with OVCAR-4, 625 µM (inactive); with LOX IMVI it was 86.3 µM (inactive); with CAKI-1, 445 µM (inactive). Further, the GI50 with IGROV-1 is 357 µM (inactive); in the test with OVCAR-8 it was 406 µM (inactive); with NCI-H23 it was 359 µM (inactive); with HOP-62 it was 259 µM (inactive); in the test on K562, 88.7 µM (inactive); in the test on Malme-3M, 881 µM (inactive). Further, the GI50 with NCI-H460 is 188 µM (inactive); with UACC-62, 358 µM (inactive); in the test on PC-3 it was 628 µM (inactive); in the test with UO-31, 434 µM (inactive); in the test on CCRF-CEM, 72.3 µM (inactive); in the test on HT-29, 234 µM (inactive). Besides, the GI50 in the test with SK-MEL-5 was 594 µM (inactive); in the test with SF-268, 561 µM (inactive).

With `c1ccc2sc(SCN(C3CCCCC3)C3CCCCC3)nc2c1`, the GI50 in the test with OVCAR-3 is > 100 µM (inactive); in the test with UACC-257, > 100 µM (inactive); in the test with HCT-15 it was over 100 µM; in the test on OVCAR-4 it was > 100 µM (inactive); in the test with LOX IMVI, > 100 µM (inactive); with CAKI-1, > 100 µM (inactive). For the same compound, the GI50 with IGROV-1, with OVCAR-8, with NCI-H23, in the test on HOP-62, with K562 and in the test on Malme-3M was > 100 µM (inactive) in each case. Further, the GI50 in the test with NCI-H460, in the test with UACC-62, in the test with PC-3, in the test with UO-31, in the test with HT-29 and with SK-MEL-5 was > 100 µM (inactive) throughout. The GI50 in the test on SF-268 was > 100 µM (inactive).

Turning to `CC(C)=CC1C(C(=O)O)C1(C)C` (configuration not stated) [CHRYSANTHEMIC ACID], the GI50 with OVCAR-3 was > 750 µM (inactive); with UACC-257, > 750 µM (inactive); in the test on HCT-15, over 750 µM; in the test with OVCAR-4, > 750 µM (inactive); with LOX IMVI it was > 750 µM (inactive); in the test with CAKI-1 it was 643 µM (inactive). The GI50 is > 750 µM (inactive) in the test with IGROV-1; > 750 µM (inactive) in the test on OVCAR-8; > 750 µM (inactive) in the test on NCI-H23; > 750 µM (inactive) in the test on HOP-62; > 750 µM (inactive) in the test with K562; 746 µM (inactive) with Malme-3M. In addition, the GI50 with NCI-H460, in the test on UACC-62, in the test with UO-31, in the test on CCRF-CEM, with HT-29 and in the test with SK-MEL-5 was > 750 µM (inactive) in each case. Besides, the GI50 with SF-268 is > 750 µM (inactive).

On to `O=C(O)c1ccccc1.[Ag]`, for which the GI50 is 12.9 µM (inactive) in the test on OVCAR-3; 5.11 µM (inactive) in the test with UACC-257; 21.6 µM in the test on HCT-15; 14.7 µM (inactive) in the test on OVCAR-4; 11.1 µM (inactive) in the test on LOX IMVI; 5.5 µM (inactive) in the test with CAKI-1. For the same compound, the GI50 with IGROV-1 was 15.7 µM (inactive); in the test with OVCAR-8, 28.1 µM (inactive); in the test on NCI-H23, 22.6 µM (inactive); with HOP-62, 21.3 µM (inactive); in the test with K562, 3.2 µM (inactive); in the test on Malme-3M it was 1.7 µM (inactive). In addition, the GI50 was 11.1 µM (inactive) with NCI-H460; 18.1 µM (inactive) with UACC-62; 15.8 µM (inactive) in the test on PC-3; 2.13 µM (inactive) in the test with UO-31; 1.99 µM (inactive) in the test with CCRF-CEM; 20 µM (inactive) in the test on HT-29. The GI50 in the test with SK-MEL-5 is 4.73 µM (inactive); in the test with SF-268, 21.8 µM (inactive).

`CCOC(=O)Cn1c(=O)ccn(COCCO)c1=O`: the GI50 in the test with OVCAR-3 is > 100 µM (inactive); in the test with UACC-257, > 100 µM (inactive); with HCT-15, over 100 µM; in the test with OVCAR-4 it was > 100 µM (inactive); in the test on LOX IMVI, > 100 µM (inactive); in the test on CAKI-1 it was > 100 µM (inactive). Moreover, the GI50 in the test on IGROV-1, in the test with OVCAR-8, in the test with NCI-H23, with HOP-62, in the test with K562 and with Malme-3M was > 100 µM (inactive) throughout. Moreover, the GI50 in the test on NCI-H460, in the test with PC-3, in the test on UO-31, in the test with CCRF-CEM, in the test on HT-29 and in the test on SK-MEL-5 was > 100 µM (inactive) throughout. Also, in the test on SF-268, the GI50 is > 100 µM (inactive).

As to `Brc1ccc2[nH]c3c(C4=NCCC4)nccc3c2c1`, the GI50 is 61 µM (inactive) with OVCAR-3; 16.9 µM (inactive) with UACC-257; 17 µM in the test on HCT-15; 17.1 µM (inactive) in the test with OVCAR-4; 18 µM (inactive) in the test on LOX IMVI; 19.6 µM (inactive) in the test with CAKI-1. For the same compound, the GI50 with IGROV-1 is 18.7 µM (inactive); in the test with OVCAR-8 it was 13.5 µM (inactive); in the test with NCI-H23, 24.8 µM (inactive); in the test with HOP-62, 11.6 µM (inactive); in the test with K562 it was 11.3 µM (inactive); in the test on Malme-3M it was 1.91 µM (inactive). For the same compound, the GI50 with NCI-H460 was 9.95 µM (inactive); in the test on UACC-62, 9.73 µM (inactive); in the test on UO-31, 14.8 µM (inactive); in the test with CCRF-CEM it was 10.4 µM (inactive); in the test on HT-29, 11.2 µM (inactive); with SK-MEL-5, 8.47 µM (inactive). In addition, in the test with SF-268, the GI50 is 16.1 µM (inactive).

For `O=[N+]([O-])c1ccc(-c2ccc([C@H]3CC(c4cc(F)c(Cl)cc4Cl)=NN3)o2)cc1`, the GI50 is 45.2 µM (inactive) in the test with OVCAR-3; 49.4 µM (inactive) in the test with UACC-257; 1.52 µM in the test on HCT-15; 40.2 µM (inactive) with OVCAR-4; 3.63 µM (inactive) in the test with LOX IMVI; 25.9 µM (inactive) in the test with CAKI-1. Further, the GI50 with IGROV-1 was 38.7 µM (inactive); in the test on OVCAR-8 it was 10.8 µM (inactive); with NCI-H23, 2.3 µM (inactive); in the test with HOP-62 it was 17 µM (inactive); in the test on K562, 22.9 µM (inactive); with Malme-3M, 19.2 µM (inactive). Further, the GI50 with NCI-H460 is 0.435 µM (active); in the test on UACC-62, 21.3 µM (inactive); in the test on UO-31 it was 69.3 µM (inactive); in the test on CCRF-CEM, 1.06 µM (active); in the test on HT-29, 37.4 µM (inactive); in the test on SK-MEL-5, 7.83 µM (inactive). In addition, the GI50 in the test on SF-268 is 19.1 µM (inactive).

For `CNC(=O)OCc1c(CO)nc(SC)n1C`, the GI50 was > 100 µM (inactive) with OVCAR-3; > 100 µM (inactive) with UACC-257; over 100 µM with HCT-15; > 100 µM (inactive) in the test on OVCAR-4; > 100 µM (inactive) in the test with LOX IMVI; > 100 µM (inactive) in the test on CAKI-1. The GI50 in the test on IGROV-1, in the test on OVCAR-8, in the test with NCI-H23, in the test on HOP-62, with K562 and with Malme-3M was > 100 µM (inactive) each time. Further, the GI50 in the test with NCI-H460, in the test with UACC-62, with UO-31, in the test on CCRF-CEM, with HT-29 and in the test with SK-MEL-5 was > 100 µM (inactive) each time. In the test on SF-268, the GI50 was > 100 µM (inactive).

Turning to `O=[N+]([O-])c1ccc(NC2OCC(O)C(O)C2O)cc1` (configuration not stated), the GI50 in the test on OVCAR-3 is > 100 µM (inactive); in the test on UACC-257 it was > 100 µM (inactive); in the test on HCT-15 it was over 100 µM; with OVCAR-4, > 100 µM (inactive); in the test with LOX IMVI it was > 100 µM (inactive); in the test on CAKI-1, > 100 µM (inactive). For the same compound, the GI50 in the test with IGROV-1, with OVCAR-8, in the test on NCI-H23, with HOP-62, in the test with K562 and in the test on Malme-3M was > 100 µM (inactive) in each case. Further, the GI50 with NCI-H460, in the test with UACC-62, in the test on UO-31, in the test with CCRF-CEM, in the test with HT-29 and with SK-MEL-5 was > 100 µM (inactive) throughout. In addition, the GI50 in the test on SF-268 was > 100 µM (inactive).
